{"source": "patent US8946244B2", "about": "“2′-fluoro-6′methylene carbocyclic nucleosides and methods of treating viral infections” (University of Georgia Research Foundation, Inc., priority 2009, dated 2015)", "key": {"wild-type HBV": {"tested_on": "wild-type HBV", "assay": "intracellular HBV DNA replication assay, wild-type HBV", "format": "cell-based, Hepatitis B virus", "protocol": "(§1) Drug susceptibility assays were performed as previously described. Cytotoxicity assays in PBM, CEM and Vero cells were conducted as previously described. Two compounds were used for testing, the first, an adenine nucleoside analog which contained hydroxyl groups at R^1 and R^1a on the sugar portion of the molecule (compound 15/18) and the second, a prodrug nucleoside based upon compound 15/18 which contained a phosphoamidate group on R^1 (R^1a was H) containing a phenyl group as R^6 and B′ was an amino acid group derived from alanine, where R^8 was methyl and R″ was a methyl group, forming a methyl ester. These compounds were tested in a standard HBV assay in the laboratory of Dr. Brent Korba."}, "HBV rtL180M": {"tested_on": "HBV rtL180M", "assay": "intracellular HBV DNA replication assay, rtL180M mutant", "format": "cell-based, Hepatitis B virus", "protocol": "as §1"}, "HBV": {"tested_on": "HBV", "assay": "standard HBV assay (laboratory of Dr. Brent Korba)", "format": "cell-based, Hepatitis B virus", "protocol": "as §1"}, "[1]": {"tested_on": "HBV double mutant rtL180M/rtM204V", "assay": "intracellular HBV DNA replication assay, double mutant", "format": "cell-based", "conditions": "Hepatitis B virus", "protocol": "as §1"}, "HBV rtA181T and rtN236T": {"tested_on": "HBV rtA181T and rtN236T", "conditions": "cited from earlier work"}, "[2]": {"tested_on": "lamivudine-resistant mutants including rtM204V/I±rtL180M", "conditions": "literature ref. 50; cited from earlier work"}}}
{"smiles": "C=C1[C@@H](n2cnc3c(N)ncnc32)[C@@H](F)[C@H](O)[C@H]1CO", "note": "(hydrate or solvate) [Compound 15, (+)-(1R,2R,3R,5R)-3-(6-amino-9H-9-purinyl)-2-fluoro-5-(hydroxymethyl)-4-methylenecyclopentan-1-ol]", "values": [{"measurement": "melting point", "result": "215 to 218 °C (dec.)"}]}
{"smiles": "C=C1[C@@H](n2cnc3c(N)ncnc32)[C@@H](F)[C@H](O)[C@H]1CO", "note": "[Compound 15, (+)-(1R,2R,3R,5R)-3-(6-amino-9H-9-purinyl)-2-fluoro-5-(hydroxymethyl)-4-methylenecyclopentan-1-ol]", "values": [{"measurement": "fold more potent than adefovir (EC90)", "setting": "wild-type HBV; wild-type HBV, EC90", "result": 1.5, "unit": "fold"}, {"measurement": "fold increased antiviral activity in the EC90 value versus lamivudine", "setting": "HBV rtL180M", "result": 4.3, "unit": "fold"}]}
{"smiles": "C=C1C(COP(=O)(N[C@@H](C)C(=O)OC)Oc2ccccc2)C(O)C(F)C1n1cnc2c(N)ncnc21", "note": "(stereo partly drawn) [Test Number 2, 2′-Deoxy-2′-fluoro-3′-hydroxy-4′-(hydroxymethyl)-5′-methylene-carbocyclic Adenosine (2′-FMCA) Monophosphate prodrug]", "values": [{"measurement": "times more active than the compound where both R1 and R1a are H", "setting": "HBV", "result": "more than 10 times"}]}
{"smiles": "Nc1ncnc2c1ncn2CCOCP(=O)(O)O", "note": "[adefovir]", "values": [{"measurement": "EC90", "setting": "wild-type HBV; Hepatitis B virus, HBV-WT, concentration required to inhibit 90% of HBV DNA, read-out: EC90 against wild-type HBV", "result": 7.1, "unit": "µM"}, {"measurement": "EC50", "setting": "[1]; read-out: EC50 against double mutant rtL180M/rtM204V", "result": 2.2, "unit": "µM"}, {"measurement": "EC90", "setting": "[1]; read-out: EC90 against double mutant rtL180M/rtM204V", "result": 8.5, "unit": "µM"}, {"measurement": "increase in median effective concentration", "setting": "HBV rtA181T and rtN236T", "result": "two-fold to nine-fold"}]}
{"smiles": "C=C1[C@H](CO)[C@@H](O)C[C@@H]1n1cnc2c(=O)[nH]c(N)nc21", "note": "[entecavir]", "values": [{"measurement": "fold loss of activity against lamivudine-resistant mutants", "setting": "[2]", "result": 8, "unit": "fold"}]}
